# Experimental data from patent publication US20130071439A1, “METHODS AND COMPOSITIONS FOR TREATING BIOFILMS” (PRESIDENT AND FELLOWS OF HARVARD COLLEGE, priority 2010, published 2013).
# Key:
# [1] = system: yqxM operon (strain FC122); assay: Expression of PyqxM-lacZ (β-galactosidase activity); type: cell-based, Bacillus subtilis
# Method: (§1) Assays of β-galactosidase activity. Cells were cultured in MSgg medium at 37° C. in a water bath with shaking 1 ml of culture was collected at each time point. β-galactosidase activity was determined as described previously (Chai et al., Mol. Microbiol. 67:254 (2008)).
# [2] = system: B. subtilis strain NCIB3610; assay: Pellicle (biofilm) formation in liquid biofilm-inducing medium; type: cell-based, Bacillus subtilis; conditions: for effect on pellicle formation / effect on biofilm formation: 3 days; for biofilm-inhibition assay for B. subtilis: concentration not given
# Method: (§2) For colony formation on solid medium, cells were first grown to exponential growth phase in LB broth and 3 μl of culture were spotted onto solid MSgg medium containing 1.5% Bacto agar. The plates were incubated at 23° C. For pellicle formation in liquid medium, cells were grown to exponential phase and 6 μl of culture were mixed with 6 ml of medium in a 12-well plate (VWR). Plates were incubated at 23° C. Images of colonies and pellicles were taken using a SPOT camera (Diagnostic Instruments, USA).
# To investigate whether mature biofilms produce a factor that triggers biofilm disassembly, the effect of concentrated and partially purified extracts of conditioned medium on pellicle formation when added to fresh medium was assayed. To this end, conditioned medium from an eight-day-old culture was applied to a C18 Sep Pak column. Concentrated eluate from the column was then added to a freshly inoculated culture. […] Further purification of the factor was achieved by eluting the cartridge in step-wise fashion with increasing concentrations of methanol.
# D-tyrosine, D-leucine, D-tryptophan, and D-methionine were screened for inhibiting biofilm formation by B. subtilis both in liquid and on solid medium (FIG. 2A, 5, 6).
# Next, the minimum concentration (MIC for Minimal Inhibitory Concentration) needed to prevent biofilm formation was determined.
# [3] = system: B. subtilis strain NCIB3610; assay: Colony biofilm formation on solid MSgg medium; type: cell-based, Bacillus subtilis; conditions: 4 days
# Method: as §2
# B. subtilis [4] = assay: Effect on cell growth in MSgg medium with shaking; type: cell-based, Bacillus subtilis
# eps operon (strain FC5) = assay: Expression of PepsA-lacZ (β-galactosidase activity); type: cell-based, Bacillus subtilis
# Method: as §1
# [5] = system: Pseudomonas aeruginosa PA14; assay: Biofilm formation on polystyrene, crystal violet staining; type: cell-based
# Method: (§3) Crystal violet staining was done as described previously (O'Toole et al., Mol. Microbiol. 30:295 (1998)) except that the cells were grown in […]. Wells were stained with 500 μl of 1.0% Crystal-violet dye, rinsed twice with 2 ml double-distilled water and thoroughly dried.
# P. aeruginosa strain […] was grown in 12-well polystyrene plates for 48 hours at 30° C. in M63 medium containing glycerol (0.2%) and Casamino acids ([…]). Additionally added to the wells were no amino acids (untreated), D-tyrosine or the D-amino acid equimolar mixture. Cells bound to the polystyrene were visualized by washing away unbound cells and then staining with crystal violet. Wells were stained with […] of 1.0% Crystal-violet dye, rinsed twice with 2 ml double-distilled water and thoroughly dried.
# (§4) For experiments reported in Table 1, the organism/strain was S.a. Harvard SCO1, the culture medium was TSB and the cell inoculation was at 2×10^9 cfu. For experiments reported in Table 2, the organism/strain was […], the culture medium was M63 and the cell inoculation was at 1.5×10^9 cfu. Biofilm was visualized using the crystal violet method.
# cell wall = assay: Incorporation of radioactive amino acids into the cell wall; type: cell-based, Bacillus subtilis; conditions: 14C-labelled, 10 μCi/ml, 2 h at 37° C.
# Method: Incorporation of amino acids into the cell wall. Cells in 50 ml of culture at the mid exponential phase of growth were harvested by centrifugation and washed with 0.05 M of phosphate buffer (pH 7) and re-suspended in 5 ml of the same buffer. […] The radioactivity of whole cells and cell wall fraction was monitored, and, at intervals samples were removed. For measurement of incorporation into whole cells, 0.1 ml samples were collected. For measurements of incorporation into cell wall, 0.5 ml samples were collected. The cells were harvested by centrifugation and re-suspended in SM buffer [0.5 M sucrose, 20 mM MgCl2, and 10 mM potassium phosphate at pH (6.8)] containing 0.1 mg/ml lysozyme. The cells were then incubated at 37° C. for 10 min. Next, the resulting protoplasts were removed by centrifugation at 5000 rpm for 10 min, leaving the cell wall material in the supernatant fluid. […] Finally, 10 ml of 5% trichloroacetic acid was added to the whole cell samples and the cell wall material and maintained on ice for at least 30 min. The TCA-insoluble material was collected on Millipore filters (0.22 μm pore size, Millipore) and washed with 5% TCA. The filters were air-dried and placed in scintillation vials and the TCA-insoluble counts per minute were determined using a scintillation counter.
# TasA fibers = assay: Cell association of TasA fibers by electron microscopy (immunogold); type: cell-based, Bacillus subtilis; conditions: 0.1 mM, 12 hours, Δeps cells
# Method: Transmission electron microscopy and immunolabeling. Samples were diluted with distilled water and adsorbed onto a carbon or formvar/carbon coated grid. The grid surface was made hydrophilic prior to use with glow discharge in a vacuum evaporator. Once the specimen was adsorbed onto the film surface, the excess sample was blotted off on a filter paper (Whatman #1) and the grid was floated on 5 μl of stain solution (1-2% aqueous uranyl acetate) for a few minutes and then blotted off. The samples were dried and examined in a Tecnai™ G^2 Spirit BioTWIN microscope at an accelerating voltage of 80 KV. Images were taken with an AMT 2k CCD camera. […]
# The cells were grown to stationary phase with shaking in biofilm-inducing medium in the presence or absence of D-tyrosine (6 μM). […] When the cells were washed by centrifugation, resuspended and then examined by fluorescence microscopy, untreated cells (which were often in clumps) were seen to be intensely decorated with TasA-mCherry. […] The localization of unmodified TasA protein was also analyzed by transmission electron microscopy using gold-labeled anti-TasA antibodies. […]
# S. aureus (strain SCO1) = assay: Biofilm formation on polystyrene, crystal violet staining; type: cell-based, Staphylococcus aureus; conditions: 50 μM, 24 hours at 37° C., TSB
# Method: as §3
# The effect of D-amino acids on biofilm formation by other bacteria was examined. The pathogenic bacterium Staphylococcus aureus forms biofilms on plastic surfaces (Otto, Curr. Top. Microbiol. Immunol. 322:207 (2008)), which can be detected by washing away unbound cells and staining the bound cells with crystal violet. […] Additionally added to the wells were no amino acids (untreated), D-tyrosine (50 μM) or the D-amino acid mixture ([…] each). Cells bound to the polystyrene were visualized by washing away unbound cells and then staining with crystal violet.
# as §4, with “method. The data is shown below in Tables 1 and 2:” for “method.”
# For experiments reported in Tables 3 and 4, the organism/strain was S.a. Harvard SCO1, the culture medium was TSB and the cell inoculation was at 2×10^9 cfu. […]
# P.a. Harvard PA14 = assay: Biofilm (colony architecture) formation on M63 defined solid medium; type: cell-based, Pseudomonas aeruginosa; conditions: 500 μM (L-tryptophan: concentration not given)
# Excerpt: Similarly to Bacillus subtilis, Pseudomonas aeruginosa forms a complex architecture on defined medium. These complex structures require the proper formation and assembly of the extra-cellular matrix. […] For these experiments, the organism/strain was P.a. Harvard PA14, the culture medium was M63 and the cell inoculation was at 1.5×10^9 cfu.
# TasA-mCherry = type: cell-based, Bacillus subtilis; conditions: 6 μM
# Method: For fluorescence microscopy analysis, 1 ml of culture was harvested. The cells were washed with PBS buffer and suspended in 50 μl of PBS buffer. Cover slides were pretreated with poly L-lysine (Sigma). Samples were examined using an Olympus workstation BX61 microscope. Images were taken using the automated software program SimplePCI and analyzed with program MetaMorph (Universal Imaging Corporation).
# The cells were grown to stationary phase with shaking in biofilm-inducing medium in the presence or absence of D-tyrosine (6 μM). […] When the cells were washed by centrifugation, resuspended and then examined by fluorescence microscopy, untreated cells (which were often in clumps) were seen to be intensely decorated with TasA-mCherry. […] The localization of unmodified TasA protein was also analyzed by transmission electron microscopy using gold-labeled anti-TasA antibodies. […] 24-hour-old cultures were incubated without (images 1 and 2) or with (images 3-6) D-tyrosine (0.1 mM) for an additional 12 hours. TasA fibers were stained by immunogold labeling using anti-TasA antibodies, and visualized by transmission electron microscopy as described in the Examples. […] Filled arrows indicate fiber bundles; open arrows indicate individual fibers. The scale bar is 500 nm. The scale bar in the enlargements of images 2, 4 and 6 is 100 nm. […]
# B. subtilis [6] = assay: Disruption of existing biofilms (3 day-old pellicles); type: cell-based, Bacillus subtilis; conditions: 3 μM added to 3 day-old culture, 8 hours
# Pseudomonas aeruginosa = assay: Attached single cells in 6 well plate, Syto-9/SYTOX staining; type: cell-based
# Method: An alternative method to observe biofilm formation on a 6 well plate with or without D-amino acids and using Syto-9 staining was as follows: Pseudomonas aeruginosa biofilms were washed twice with PBS and then fixed for at least an hour in 5% Glutaraldehyde in PBS. The fixed biofilms were then rinsed once again with PBS and soaked in 0.1% v/v Triton X-100 in PBS (PBST) for 15 minutes. The solution was exchanged with 0.1 nM SYTOX green (Invitrogen) in cold PBST and gently rocked in the dark for at least 15 minutes. Fluorescence images of the biofilms were captured with a Leica DMRX compound microscope using a Xe lamp and a K3 Leica filtercube. […] The amount of attached single cells was quantified using image J. The decrease in the amount of cells attached to the epoxy surfaces soaked with D-aa compared with the L-aa control was substantially more.
# [7] = complete inhibition of pellicle formation
structure (smiles),measurement,setting,value
"CC(C)C[C@@H](N)C(=O)O [D-Leu, D-leucine]",yqxM expression,[1]; 8.5 mM,substantially the same as the untreated sample
same,effect on pellicle formation,[2]; 8.5 mM added to freshly inoculated culture in biofilm-inducing medium,significant inhibition of biofilm growth
same,minimum concentration (MIC) needed to prevent biofilm formation,[2]; [7],around 1 mM
same,biofilm-inhibition assay for B. subtilis,[2],significant inhibition of biofilm growth
same,effect on biofilm formation on solid medium,[3]; 8.5 mM,inhibited biofilm formation
same,cell growth,B. subtilis [4]; 8.5 mM,substantially the same as the untreated sample
same,eps expression,eps operon (strain FC5); 8.5 mM,substantially the same as the untreated sample
"CSCC[C@@H](N)C(=O)O [D-Met, D-methionine]",effect on biofilm formation,[2]; 2 mM in MSgg medium,active in inhibiting biofilm formation
same,minimum concentration (MIC) needed to prevent biofilm formation,[2]; [7],around 1 mM
same,biofilm-inhibition assay for B. subtilis,[2],significant inhibition of biofilm growth
same,inhibition at 10 µM,"[5]; Pseudomonas aeruginosa, PA14, 10 μM, 48 h/30° C., Polystyrene, read-out: % Inhibition relative to control (0%, <50%, 50-90%, >90%)",0%
same,inhibition at 100 µM,"[5]; Pseudomonas aeruginosa, PA14, 100 μM, 48 h/30° C., Polystyrene, read-out: % Inhibition relative to control (0%, <50%, 50-90%, >90%)",0%
same,inhibition at 500 µM,"[5]; Pseudomonas aeruginosa, PA14, 500 μM, 48 h/30° C., Polystyrene, read-out: % Inhibition relative to control (0%, <50%, 50-90%, >90%)",0%
"N[C@H](Cc1ccc(O)cc1)C(=O)O [D-Tyr, D-tyrosine]",yqxM expression,[1]; 3 μM,substantially the same as the untreated sample
same,effect on pellicle formation,[2]; 3 μM added to freshly inoculated culture in biofilm-inducing medium,significant inhibition of biofilm growth
same,minimum concentration (MIC/MBIC) needed to prevent biofilm formation,[2]; [7],about 100 nM
same,biofilm-inhibition assay for B. subtilis,[2],significant inhibition of biofilm growth
same,effect on biofilm formation on solid medium,[3]; 3 μM,inhibited biofilm formation
same,incorporation into the cell wall,cell wall,incorporated into the cell wall
same,cell association of TasA fibers,TasA fibers,largely undecorated with TasA fibers
same,effect on biofilm formation,S. aureus (strain SCO1),highly effective in preventing biofilm formation
same,effect on biofilm formation,"[5]; 10 μM, 48 hours at 30° C., M63",effective in preventing biofilm formation
same,effect on biofilm formation on defined medium,P.a. Harvard PA14,inhibited biofilm formation on defined medium
same,cell growth,B. subtilis [4]; 3 μM,substantially the same as the untreated sample
same,eps expression,eps operon (strain FC5); 3 μM,substantially the same as the untreated sample
same,cell association of TasA-mCherry (fluorescence microscopy of washed cells),TasA-mCherry,only low levels of fluorescence
same,total accumulation of TasA-mCherry (total fluorescence),TasA-mCherry; grown to stationary phase,little or no effect
same,effect on existing pellicles,B. subtilis [6],conspicuous breakdown of pellicles
same,number of cells attached to the bottom of the biofilm plate,Pseudomonas aeruginosa,dramatic decrease
"N[C@@H](Cc1ccc(O)cc1)C(=O)O [L-Tyr, L-tyrosine, reference compound]",effect on biofilm formation on defined medium,P.a. Harvard PA14,did not
C[C@@H](N)C(=O)O [D-alanine],biofilm-inhibition assay for B. subtilis,[2],not effective
"N[C@H](Cc1ccccc1)C(=O)O [D-Phe, D-phenylalanine]",biofilm-inhibition assay for B. subtilis,[2],not effective
"N[C@@H](Cc1c[nH]c2ccccc12)C(=O)O [L-tryptophan, reference compound]",effect on biofilm formation,[2]; 5 mM in MSgg medium,Only the D-amino acids were active
same,effect on biofilm formation on defined medium,P.a. Harvard PA14,did not
"N[C@H](Cc1c[nH]c2ccccc12)C(=O)O [D-Trp, D-tryptophan]",effect on biofilm formation,[2]; 0.5 mM in MSgg medium,active in inhibiting biofilm formation
same,minimum concentration (MIC) needed to prevent biofilm formation,[2]; [7],around 1 mM
same,biofilm-inhibition assay for B. subtilis,[2],significant inhibition of biofilm growth
same,effect on biofilm formation on defined medium,P.a. Harvard PA14,inhibited biofilm formation on defined medium
"CSCC[C@H](N)C(=O)O [L-methionine, reference compound]",effect on biofilm formation,[2]; 5 mM in MSgg medium,Only the D-amino acids were active
